# Reference: patent US11912693B2, “Compounds for modulating S1P1 activity and methods of using the same” (TREVENA, INC., priority 2017, dated 2024)
# Test system: spinal nerve ligation peripheral neuropathy
# Assay: Tactile allodynia and thermal hyperalgesia in spinal nerve ligation (SNL) peripheral neuropathy model
# Format: in vivo, Sprague Dawley rats
# Procedure: A cohort of 48 male Sprague Dawley rats, weighing 225-250 g at arrival, was group housed under constant temperature, humidity and a 12-hour light-dark cycle. Following acclimation to the animal colony, the animals were tested for baseline withdrawal responses to mechanical allodynia and thermal hyperalgesia using the methods described in. Chaplan, S. R., Bach, […]., Chung, J. M. and Yaksh, T. L. Quantitative assessment of tactile allodynia in the rat paw. J. Neurosci. Methods 53: 55-63, 1994; Joris, J. L., Dubner, R. and Hargreaves, K. M. Opioid analgesia at Peripheral Sites: a Target for Opioids Released during Stress and Inflammation? Anesthesia and Analgesia 66(12), 1277-81, 1987; and Kim, S. H. and Chung, J. M. An experimental model of peripheral neuropathy produced by segmental spinal nerve ligation in the rat. Pain 50: 335-63, 1992. […] Thermal hyperalgesia was measured at 1 or 1.5 hr after dosing of test articles, vehicle, and reference compound via the specified route(s) on Day 21. […] The time was measured automatically when the paw was withdrawn away from the thermal stimulus. […] Mean thresholds and withdrawal latencies were analyzed via Two Way ANOVA followed by Dunnett's Multiple Comparison tests to SNL+VEH group with differences considered significant at p<0.05.
compound,measurement,setting,value
"CCC1(CC)CC(=O)c2cc(-c3nc(-c4cccnc4)no3)ccc2O1 [Compound 103, 2,2-diethyl-6-[3-(pyridin-3-yl)-1,2,4-oxadiazol-5-yl]-3,4-dihydro-2H-1-benzopyran-4-one]",Active Doses in SNL Neuropathy Model (mg/kg) (p < 0.05 compared to SNL + VEH treated mice) MECHANICAL,"mechanical allodynia, manual von Frey",<100 mg/kg
same,Active Doses in SNL Neuropathy Model (mg/kg) (p < 0.05 compared to SNL + VEH treated mice) THERMAL,"thermal hyperalgesia, paw withdrawal latency",<100 mg/kg
